Source: ChEMBL document CHEMBL4420080, “Inhibitors of sox18 protein activity for treating angiogenesis- and/or lymphangiogenesis-related diseases” (2018)
The source made the active and inactive calls. The calls are words filed in the database; no cut-off is given here.

Columns and labels:
[1] = Cytotoxicity in African green monkey COS7 cells assessed as reduction in cell viability incubated for 24 hrs by Alamar blue dye based assay; parameters: species or system COS-7; settings: chlorocebus aethiops
[2] = Critical micellar concentration of the compound; type: physicochemical
4T1.2 = assay: Antitumor activity against mouse 4T1.2 cells implanted in BALB/c mouse assessed as median disease latency time at 25 mg/kg/day for 10 days (Rvb =33 days); type: functional
[3] = Cytotoxicity in human HepG2 cells assessed as reduction in cell viability incubated for 24 hrs by Alamar blue dye based assay
[4] = target: T1, Transcription factor SOX-18 (Mus musculus) (UniProt P43680); assay: (§1) Competitive binding affinity to full-length mouse SOX18 expressed in Sf9 cells assessed as reduction in SOX1 8- DNA binding by measuring FP-bound fraction at 200 uM using FAM-labelled Prox1 -DNA element incubated for 5 mins in dark at room temperature, 10 mins at 37 degC and 30 mins at room temperature by fluorescence polarization assay relative to control; parameters: scale not given: the % may be the effect or the level left
T1 sequence (whole entry): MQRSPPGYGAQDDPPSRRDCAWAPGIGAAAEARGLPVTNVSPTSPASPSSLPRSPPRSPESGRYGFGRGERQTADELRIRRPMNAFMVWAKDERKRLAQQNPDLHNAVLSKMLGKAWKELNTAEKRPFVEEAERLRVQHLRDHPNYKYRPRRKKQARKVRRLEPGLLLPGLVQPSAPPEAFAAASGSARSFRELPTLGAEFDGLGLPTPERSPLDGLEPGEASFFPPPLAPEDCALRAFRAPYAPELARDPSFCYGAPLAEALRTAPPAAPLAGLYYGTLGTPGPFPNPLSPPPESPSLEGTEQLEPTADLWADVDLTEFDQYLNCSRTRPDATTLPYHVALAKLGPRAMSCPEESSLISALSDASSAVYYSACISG

[5] = target: T1, Transcription factor SOX-18 (Mus musculus); assay: as §1, with “binding” for “binding by measuring FP-bound fraction at 200 uM”, “element at 1 to 1000 uM” for “element”, “assay” for “assay relative to control”
[6] = target: T1, Transcription factor SOX-18 (Mus musculus); assay: as §1, with “50” for “200”; parameters: scale not given: the % may be the effect or the level left
[7] = Cytotoxicity in HEK293 cells assessed as reduction in cell viability incubated for 24 hrs by Alamar blue dye based assay; settings: human

SMILES	CC50 at 24 h [1]	CMC [2]	other results
O=C1N=C(N2CCCC2)S/C1=C/c1ccc(O)cc1O	> 200 µM	> 1000 µM	–
COC(=O)c1c(O)cccc1CCCCC(C)CCCC(C)C (stereo unspecified)	–	20 µM	–
CCCCCCCCCc1cccc(OC)c1C(=O)OC	–	20 µM	–
O=C(O)c1c(O)cccc1COCCc1ccccc1	> 200 µM	–	–
CCCCCCCCCc1cccc(O)c1C(=O)OC	–	20 µM	–
COc1ccc(OCC(=O)c2ccc(O)cc2O)cc1	> 200 µM	> 1000 µM	–
Cc1cccc2c(=O)c3c(O)cc(O)cc3oc12	> 200 µM	> 1000 µM	–
CC(=O)Oc1ccccc1C(=O)O [ASPIRIN]	–	–	Time (4T1.2): 44 days
COC(=O)c1c(O)cccc1CCc1ccc2ccccc2c1	–	20 µM	–
Cc1cc(O)c(C(=O)O)c(CCc2ccc3ccccc3c2)c1	–	–	CC50 at 24 h [3]: 377 µM
COc1cc(O)c(C(=O)O)c(C=Cc2ccc3ccccc3c2)c1 (mixture of isomers)	–	–	Activity [4]: 19.8%
COc1cccc(CCCCCCc2ccccc2)c1C(=O)O	> 200 µM	> 1000 µM	–
COc1cccc(C=Cc2ccc3ccccc3c2)c1C(=O)O (mixture of isomers)	–	–	CC50 at 24 h [3]: > 100 µM
O=C(O)c1cccnc1Nc1cccc(C(F)(F)F)c1	–	–	Activity [5]: Active
CCN(CC)C(=O)c1c(CCc2ccc3ccccc3c2)cccc1OC	–	–	CC50 at 24 h [3]: 38.5 µM; Activity [6]: 100%; Activity [4]: 117%; CC50 at 24 h [7]: 62.6 µM
O=C(O)c1ccccc1Nc1cccc(C(F)(F)F)c1	–	–	Activity [5]: Active
CCN(CC)C(=O)c1c(CCc2ccc3ccccc3c2)cc(OC)cc1OC	–	–	CC50 at 24 h [3]: 35.8 µM; Activity [6]: 97.3%; Activity [4]: 107%; CC50 at 24 h [7]: 85.8 µM
O=C(COc1ccc2ccccc2c1)c1ccc(O)cc1O	98.6 µM	> 1000 µM	–
Cc1ccc(Cl)c(Nc2ccccc2C(=O)O)c1Cl	–	–	Activity [5]: Active
CC(C)CCCC(C)CCCCc1cccc(O)c1C(=O)O (stereo unspecified)	–	30 µM	–
